Read-outs that look alike come from different tables or passages of the source. No end group written: not given here.
Columns and labels:
[1] = Pharmacokinetics of GLP-1 compound after oral gavage with delivery agent (subcutaneous control); type: in vivo, Male Sprague Dawley rats; settings: rat
Method: A solution of Val^8-Glu^22-GLP-1 was prepared by dissolving the GLP-1 compound in distilled water to yield a concentration of 7 mg/mL. The pH was slowly raised to 10.5 with 2 N NaOH, followed by incubation at room temperature for 30 minutes. A volume of 1 M Tris buffer, pH 8.0 was added to give a final buffer concentration 20 mM Tris, and the pH adjusted to pH 7.8 with 1 N or 5 N HCl. The solution was then filtered through a low protein binding […] syringe filter (Millex GV, Millipore) and the concentration of the GLP-1 compound was determined by UV spectroscopy. The solution was diluted to a final concentration of 5.5 mg/mL using 20 mM Tris buffer, pH 7.8. The peptide solution was then stored in 1.0 mL aliquots at −70° C. until used.
Final formulations were freshly prepared approximately 30 minutes to 1 hour prior to in vivo dosing by combining 4.5 mL of the delivery agent with 0.5 mL of the GLP-1 compound. The final formulations were dosed by oral gavage at 2 mL/kg (1.1 mg/kg GLP-1 compound, 300 mg/kg delivery agent) with to Male Sprague Dawley rats that were fasted for 12 hours prior to dosing. A subcutaneous dose of the GLP-1 compound alone was used as a control (0.011 mg/kg).

[2] = Stability studies of delivery agents, HPLC after three days storage; type: physicochemical; settings: prepared at 150 mg/mL
Method: Stability studies were conducted for delivery agent numbers 9, 15, and 40. The delivery agents were freshly prepared as described above respectively to achieve the desired concentration of 150 mg/mL. The samples were divided into three 2 mL aliquots and stored at −20° C., 4° C., and ambient for three days. HPLC assay development and analyses were performed at the end of the storage period.

[3] = Solubility of delivery agents at desired formulation concentration; type: physicochemical; settings: for solubility at the desired concentration of 150 mg/mL: 0.1 N NaOH base, further base to pH 11.5, and cosolvents
Method: Approximately 600 mg of delivery agent number 15 was weighed into Type I glass vials to which 3 mL of base (0.1 N NaOH, pH 12.7) was added to achieve a final concentration of 200 mg/mL. The pH was adjusted to 7.1 and the concentration was estimated to be 171 mg/mL. Delivery agent number 15 was then diluted to 150 mg/mL with Milli-Q® water.
Delivery agents number 40 and 9 were insoluble at the desired concentration of 150 mg/mL when followed example 1. […] Cosolvents tested included ethanol, N-methylpyrrolidone, N,N-dimethylacetamide, N,N-dimethylformamide, glycofurol, ethoxydiol, propylene glycol, polyethyleneglycol 300, and polyvinylpyrrolidone.
However, for delivery agent number 40, 150 mg was weighed into a Type I vial, to which 1 mL of Milli-Q® water was added, and the pH adjusted with 10 N NaOH.
(§1) Approximately 1.7 mL of suspending agent was added to a Type I glass vial containing 300 mg of delivery agent number 9. The preparation was cooled on ice for 3 minutes, followed by probe sonication on ice for 30 minutes using a Misonix Sonicator® Ultrasonic Processor XL ( 3/16th inch microtip). […] The formulation was then diluted to 150 mg/mL with the suspending agent.

[4] = Mean particle size of delivery agent suspension (Coulter LS Particle Size Analyzer); type: physicochemical; settings: suspension in 4% w/v Klucel
Method: as §1

[5] = Peptide A 1.1 mg/kg + delivery agent 300 mg/kg, oral gavage, Tris solution
[6] = Peptide A 1.1 mg/kg + delivery agent 300 mg/kg, oral gavage, Tris suspension
[7] = stored at ambient for three days
[8] = stored at −20° C. for three days
[9] = Peptide A 1.1 mg/kg + delivery agent 300 mg/kg, oral gavage, Klucel suspension
[10] = Val8-Glu22-GLP-1 1.1 mg/kg + delivery agent 300 mg/kg, oral gavage, solution
[11] = Peptide A alone, no delivery agent, Tris solution, subcutaneous control 0.011 mg/kg

## O=C(N[C@@H](Cc1ccccc1)C(=O)O)C1CCCCC1 (stereo in doubt) [Delivery agent 46]
[1]; Peptide A 1.1 mg/kg + delivery agent 300 mg/kg, oral gavage, Klucel solution
  AUC: 4789.7 pg·min/mL
[1]; [5]
  AUC: 19304.1 pg·min/mL

## O=C(O)CCCCCCCNC(=O)c1ccccc1 [Delivery agent 2]
[1]; [5]
  AUC: 7202 pg·min/mL

## CN(CCCCCCCC(=O)O)C(=O)c1ccccc1 [Delivery agent 3]
[1]; [5]
  AUC: 237422.3 pg·min/mL

## O=C(O)CCCCCCCNC(=O)c1ccccc1O [Delivery agent 5]
[1]; [6]
  AUC: 40984 pg·min/mL

## O=C(O)CCCCCCCCCNC(=O)c1ccccc1O [Delivery agent 6]
[1]; [6]
  AUC: 37926 pg·min/mL

## CN(C)CCCCCCNC(=O)c1ccccc1O [Delivery agent 7]
[1]; [5]
  AUC: 204611 pg·min/mL

## CN(CCCCCCCC(=O)O)C(=O)c1ccccc1O [Delivery agent 8]
[1]; [5]
  AUC: 173548.6 pg·min/mL

## O=C(O)CCCCCCCNC(=O)c1cc(Cl)ccc1O [Delivery agent 9]
[2]; stored at 4° C. for three days
  Stability Data: delivery agent concentration: 148.6 mg/mL
[2]; [7]
  Stability Data: delivery agent concentration: 146.0 mg/mL
[2]; [8]
  Stability Data: delivery agent concentration: 153.2 mg/mL
[1]; Val8-Glu22-GLP-1 1.1 mg/kg + delivery agent 300 mg/kg, oral gavage, Klucel suspension
  AUC: 28144 ± 38576 pg·min/mL
[3]
  solubility at the desired concentration of 150 mg/mL: insoluble
[3]; aqueous
  aqueous solubility: aqueous insolubility
[4]
  mean particle size before sonication: 48 μm
[4]; probe sonication 30 minutes, pH 7.98
  mean particle size after sonication: 8 μm

## Cc1cccc(C(=O)NCCCCCCCC(=O)[O-])c1[O-].[Na+].[Na+] [Delivery agent 12]
[1]; [9]
  AUC: 35239 pg·min/mL

## COc1cc(O)ccc1C(=O)NCCCCCCCC(=O)O [Delivery agent 14]
[1]; [5]
  AUC: 160066.6 pg·min/mL

## COc1ccc(C(=O)NCCCCCCCC(=O)[O-])c([O-])c1.[Na+].[Na+] [Delivery agent 15]
[2]; stored at 4° C. for three days
  Stability Data: delivery agent concentration: 138.2 mg/mL
[2]; [7]
  Stability Data: delivery agent concentration: 137.4 mg/mL
[2]; [8]
  Stability Data: delivery agent concentration: 135.5 mg/mL
[1]; [5]
  AUC: 254291 pg·min/mL
[1]; Peptide B + delivery agent, oral gavage, Tris solution
  AUC: 82656 pg·min/mL
[1]; [10]
  AUC: 254291 ± 129387 pg·min/mL

## COc1ccc(C(=O)NCCCCCCCN(C)C)c(O)c1 [Delivery agent 16]
[1]; [9]
  AUC: 19972 pg·min/mL

## CN(C(=O)c1ccccc1)c1ccc(CCCC(=O)[O-])cc1.[Na+] [Delivery agent 19]
[1]; [6]
  AUC: 290106.4 pg·min/mL

## O=C(N[C@@H](Cc1ccccc1)C(=O)O)c1ccccc1O [Delivery agent 20]
[1]; [6]
  AUC: 21948 pg·min/mL

## O=C([O-])Cc1ccc(NC(=O)c2ccccc2O)cc1.[Na+] [Delivery agent 21]
[1]; [6]
  AUC: 57166 pg·min/mL

## COc1ccccc1C(=O)Nc1ccc(CCCC(=O)O)cc1 [Delivery agent 23]
[1]; [5]
  AUC: 15747 pg·min/mL

## CN(C)c1ccc(C(=O)Nc2ccc(CCCC(=O)O)cc2)cc1 [Delivery agent 24]
[1]; [5]
  AUC: 21559.2 pg·min/mL

## O=C(O)CCCCCCCOc1ccccc1O [Delivery agent 26]
[1]; [5]
  AUC: 113480.1 pg·min/mL

## O=C(O)CCCCCCCOc1cccc(O)c1 [Delivery agent 27]
[1]; [9]
  AUC: 299137.2 pg·min/mL

## CC(=O)c1ccccc1OCCCCCCCC(=O)O [Delivery agent 28]
[1]; [5]
  AUC: 59543 pg·min/mL
[1]; [6]
  AUC: 13116 pg·min/mL

## CC(=O)c1ccccc1OCCCCCCCC(=O)[O-].[Na+] [Delivery agent 29]
[1]; [5]
  AUC: 62303 pg·min/mL

## CC(=O)c1ccccc1OCc1ccc(C(=O)O)cc1 [Delivery agent 30]
[1]; [5]
  AUC: 35259 pg·min/mL

## CNC(=O)c1ccccc1OCCCCCCCC(=O)O [Delivery agent 31]
[1]; [5]
  AUC: 30164 pg·min/mL

## O=C(O)CCCCCCCNC(=O)c1ccccn1 [Delivery agent 32]
[1]; [6]
  AUC: 130175.6 pg·min/mL

## O=C(O)CCCCCCCNC(=O)c1ccncc1 [Delivery agent 34]
[1]; [6]
  AUC: 6964.2 pg·min/mL

## O=C(O)CCCCCCCNS(=O)(=O)c1ccccc1 [Delivery agent 36]
[1]; [5]
  AUC: 42036 pg·min/mL

## O=C(O)[C@@H](NS(=O)(=O)c1ccccc1)c1ccccc1 [Delivery agent 38]
[1]; [5]
  AUC: 5669 pg·min/mL

## O=C(O)c1ccc(NS(=O)(=O)c2ccccc2)cc1 [Delivery agent 39]
[1]; [5]
  AUC: 6087 pg·min/mL

## O=C(O)CCCc1ccc(NS(=O)(=O)c2ccccc2)cc1 [Delivery agent 40]
[2]; stored at 4° C. for three days
  Stability Data: delivery agent concentration: 135.1 mg/mL
[2]; [7]
  Stability Data: delivery agent concentration: 135.3 mg/mL
[2]; [8]
  Stability Data: delivery agent concentration: 134.0 mg/mL
[1]; [5]
  AUC: 94215 pg·min/mL
[1]; [10]
  AUC: 94215 ± 66732 pg·min/mL
[3]
  solubility at the desired concentration of 150 mg/mL: insoluble
[3]; Milli-Q water, pH adjusted with 10 N NaOH, pH 8.22
  solution concentration achieved: 150 mg/mL

## CN(c1ccc(CCCC(=O)O)cc1)S(=O)(=O)c1ccccc1 [Delivery agent 41]
[1]; [5]
  AUC: 21679.1 pg·min/mL

## O=C(O)CCCCCCCNC(=O)C1CCCCC1 [Delivery agent 43]
[1]; [6]
  AUC: 7281 pg·min/mL

## O=C(O)CCCc1ccc(NC(=O)C2CCCCC2)cc1 [Delivery agent 44]
[1]; [5]
  AUC: 55671 pg·min/mL

## CC(C)C[C@H](NC(=O)C1CCCCC1)C(=O)O [Delivery agent 45]
[1]; [5]
  AUC: 13468.0 pg·min/mL

## CC(C)[C@H](NC(=O)C1CCCCC1)C(=O)O [Delivery agent 48]
[1]; [5]
  AUC: 6068.5 pg·min/mL

## O=C(O)CCCCCCCNC(=O)/C=C/c1ccccc1F [Delivery agent 51]
[1]; [5]
  AUC: 10838 pg·min/mL

## O=C(O)CCCCCCc1nnc(-c2ccccc2)o1 [Delivery agent 53]
[1]; [6]
  AUC: 337360 pg·min/mL

## O=C(O)CCCCc1nnc(-c2ccccc2O)o1 [Delivery agent 54]
[1]; [9]
  AUC: 218240.8 pg·min/mL
[1]; [6]
  AUC: 684087.3 pg·min/mL

## O=C(N[C@H](C(=O)O)c1ccccc1)c1ccccc1 [Delivery agent 55]
[1]; [5]
  AUC: 20177.7 pg·min/mL

## O=C(N[C@@H](Cc1ccccc1)C(=O)O)c1ccccc1 [Delivery agent 56]
[1]; [5]
  AUC: 48324.4 pg·min/mL

## HVEGTFTSDVSSYLEEQAAKEFIAWLVKGRG [A]
[1]; [11]
  AUC: 93635 pg·min/mL
  Cmax: 3.781 ng/mL
  Tmax: 10 ± 0 min
[1]; male, Sprague Dawley, in vivo, sc, GLP-1 compound alone, solution, subcutaneous control 0.011 mg/kg, read-out: AUC (converted)
  AUC: 93600 pg·min/mL
[1]; male, Sprague Dawley, in vivo, sc, GLP-1 compound alone, solution, subcutaneous control 0.011 mg/kg, read-out: Cmax
  Cmax: 3.78 ± 1.1 ng/mL
[1]; male, Sprague Dawley, in vivo, sc, GLP-1 compound alone, solution, subcutaneous control 0.011 mg/kg, read-out: Tmax (converted)
  Tmax: 10 min
